Where two headings read alike, the source gives them in different places.

One test concerns the target p38a/PRAK (Homo sapiens (Human), UniProt Q16539). Briefly: p38a/PRAK biochemical assay: activation of PRAK by p38, FITC-HSP27 peptide phosphorylation (IMAP FP). To be noted: 10-point 1:3 dilution, top dose 300 μM; 60 pM active p38a, 1 nM inactive PRAK, 10 μM ATP, 2 h incubation; read-out: p38a/PRAK Enzyme pIC50 (converted). As for the experimental part: (§1) Expression vectors of the recombinant MK2 and PRAK kinases were constructed by cloning of the codon optimized gene sequences of MK2 (Uniprot ID P49137, amino acid fragment F46-H400), or PRAK (Uniprot ID Q81W41, amino acid fragment M1-Q471) into pGEX-4T1 (GE) for over expression of these kinases with N-terminal GST-tag. Protein expression was carried out in E. coli BL21 by growing the hosts in TB medium, induction of protein expression with 0.5 mM IPTG at approximate 0.8 OD600, and incubation of the cultures at 18° C. for 14-20 hours afterwards. The harvested cells were resuspended in […] of Lysis buffer (50 mM Tris-HCl, pH 8.0, 500 mM NaCl, 1 mM DTT, 5% glycerol, and 1 mM PMSF) per gram of wet cell mass and homogenized at 4° C. in a microfluidizer (ATS, Suzhou, China) at 14,000 psi pressure, 3 passes. The cell lysates were clarified by centrifugation and the supernatants containing the GST-fusion proteins were purified by affinity chromatography using GSH-Sepharose (GE) gravity flow columns pre-equilibrated in Buffer A (50 mM Tris-HCl, pH 8.0, 500 mM NaCl, 1 mM DTT, and 5% glycerol). After thorough washing of the columns with Buffer A, the bound GST-proteins were eluted by Buffer B (50 mM Tris, pH 8.0, 500 mM NaCl, 1 mM DTT, 5% glycerol, 10 mM glutathione), followed by size-exclusion purification on Superdex 200 column equilibrated in Buffer A. The purified proteins were concentrated to approximately 1 mg/ml and stored at −80° C.
This study evaluates the inhibitory potency of invention compound on p38/MK2 pathway vs p38/PRAK pathway. More specially the compound concentration (IC50) was determined that inhibited half of the maximal activation of MK2 or PRAK by p38. MK2 activation study was set up without or with a serial of 10-point 1:3 dilution of invention compound at top dose of […], and PRAK activation study was set up without or with a serial of 10-point 1:3 dilution of invention compound at top dose of 300 μM. The MK2 and PRAK activity were determined by the phosphorylation level of HSP27 peptide conjugated with FITC.
(§2) After 2 h incubation of the reaction mixture with various concentration of invention compound (200 nL), 60 μL 1×IMAP solution Mixture (Molecular Devices, Cat R8127) was added to the reaction mixture and incubated for another half hour. The signal was then read by Synergy™ Neo2 Multi-Mode Microplate Reader with filter setting (Ex/Em=485 nm/FITC FP-P pol 528 nm & FITC FP-S pol 528 nm)
(§3) The signal was then normalized to vehicle control and fitted in Xfit to generate IC50. The selectivity of MK2 over PRAK was calculated by the formular Selectivity=IC50 of PRAK/IC50 of MK2.

A further test deals with p38a/MK2 (Homo sapiens (Human), UniProt P49137+Q16539). The test is described as follows: p38a/MK2 biochemical assay: activation of MK2 by p38, FITC-HSP27 peptide phosphorylation (IMAP FP). To be noted: 10-point 1:3 dilution, 60 pM active p38a, 1 nM inactive MK2, 10 μM ATP, 2 h incubation. The procedure: as §1
This study evaluates the inhibitory potency of invention compound on p38/MK2 pathway vs p38/PRAK pathway. More specially the compound concentration (IC50) was determined that inhibited half of the maximal activation of MK2 or PRAK by p38. MK2 activation study was set up without or with a serial of 10-point 1:[…], and PRAK activation study was set up without or with a serial of 10-point 1:3 dilution of invention compound at top dose of 300 μM. The MK2 and PRAK activity were determined by the phosphorylation level of HSP27 peptide conjugated with FITC.
as §2, §3

[1] abbreviates: top dose 1 μM, read-out: p38a/MK2 (1 μM) Enzyme pIC50 (converted).
[2] abbreviates: top dose 10 μM, read-out: p38a/MK2 (10 μM) Enzyme pIC50 (converted).

p38a/MK2, sequence (P49137 46-400): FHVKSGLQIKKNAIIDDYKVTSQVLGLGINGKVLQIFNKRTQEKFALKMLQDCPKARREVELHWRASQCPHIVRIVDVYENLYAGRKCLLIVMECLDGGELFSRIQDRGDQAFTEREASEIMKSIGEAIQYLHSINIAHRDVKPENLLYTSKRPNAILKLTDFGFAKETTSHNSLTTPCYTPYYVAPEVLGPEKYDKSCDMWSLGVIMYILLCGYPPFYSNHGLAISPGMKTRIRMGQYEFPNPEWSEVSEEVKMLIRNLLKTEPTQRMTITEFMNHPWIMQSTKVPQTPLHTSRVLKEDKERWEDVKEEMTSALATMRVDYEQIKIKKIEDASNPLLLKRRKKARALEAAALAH
p38a/MK2, sequence (Q16539 whole entry): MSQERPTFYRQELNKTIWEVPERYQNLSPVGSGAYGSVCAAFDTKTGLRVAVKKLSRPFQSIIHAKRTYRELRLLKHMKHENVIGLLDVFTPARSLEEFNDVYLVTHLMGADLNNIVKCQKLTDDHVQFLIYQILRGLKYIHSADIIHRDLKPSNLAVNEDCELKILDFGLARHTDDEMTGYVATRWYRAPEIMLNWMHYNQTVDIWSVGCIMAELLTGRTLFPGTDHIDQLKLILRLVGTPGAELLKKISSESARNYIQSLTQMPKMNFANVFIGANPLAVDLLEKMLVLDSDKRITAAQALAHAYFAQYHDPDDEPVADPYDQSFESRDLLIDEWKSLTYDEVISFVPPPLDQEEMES
p38a/PRAK, sequence (Q16539 whole entry, the tested form may be a part): as the sequence (Q16539 whole entry) above

Take `Cc1cnc(-c2ccnc(C(C)(C)O)c2F)cc1-n1c(C)cc(OCc2ncc(F)cc2F)c(Cl)c1=O` (atropisomer, axis not shown) [Example 56A, 3-chloro-4-[(3,5-difluoropyridin-2-yl)methoxy]-1-[3′-fluoro-2′-(2-hydroxypropan-2-yl)-5-methyl-[2,4′-bipyridin]-4-yl]-6-methylpyridin-2-one]: the IC50 is 1.58 µM on p38a/PRAK and 2 nM on p38a/MK2 (setting [1]).

For `Cc1cnc(-c2ccnc(C(C)(C)O)c2F)cc1-n1c(C)cc(OCc2ncc(F)cc2F)c(Cl)c1=O` (atropisomer, axis not shown) [Example 56B, 3-chloro-4-[(3,5-difluoropyridin-2-yl)methoxy]-1-[3′-fluoro-2′-(2-hydroxypropan-2-yl)-5-methyl-[2,4′-bipyridin]-4-yl]-6-methylpyridin-2-one], the figures for the IC50 at p38a/PRAK and at p38a/MK2 (setting [1]) were greater than 316 µM and greater than 1000 nM, respectively.

Consider `Cc1cnc(-c2ccnc([C@@](C)(O)C3CC3)n2)cc1-n1c(C)cc(OCc2ncc(F)cc2F)c(Cl)c1=O` (racemic) [Example 6, 3-chloro-2′-[2-(1-cyclopropyl-1-hydroxyethyl)pyrimidin-4-yl]-4-[(3,5-difluoropyridin-2-yl)methoxy]-5′,6-dimethyl-[1,4′-bipyridin]-2-one], for which the IC50 at p38a/PRAK was 12.6 µM. For the same molecule, the “p38a/MK2 (10 μM) Enzyme pIC50” value at p38a/MK2 (top dose 10 μM) turned out to be 7.5.

`COCC(C)(O)c1nccc(-c2cc(-n3c(C)cc(OCc4ncc(F)cc4F)c(Cl)c3=O)c(C)cn2)n1` (racemic) [Example 55, 3-chloro-4-[(3,5-difluoropyridin-2-yl)methoxy]-2′-[2-(2-hydroxy-1-methoxypropan-2-yl)pyrimidin-4-yl]-5′,6-dimethyl-[1,4′-bipyridin]-2-one]: the IC50 at p38a/PRAK was 10 µM; on p38a/MK2 (setting [1]), 63.1 nM.

In the case of `Cc1cnc(-c2ccnc(C3(O)CC3)n2)cc1-n1c(C)cc(OCc2ncc(F)cc2F)c(Cl)c1=O` (single isomer, unassigned) [Example 3A, rel-3-chloro-4-[(3,5-difluoropyridin-2-yl)methoxy]-2′-[2-(1-hydroxycyclopropyl)pyrimidin-4-yl]-5′,6-dimethyl-[1,4′-bipyridin]-2-one], the IC50 at p38a/PRAK was 3.98 µM; on p38a/MK2 (setting [1]) it was 10 nM.

As for `Cc1cnc(-c2ccnc(C3(O)CC3)n2)cc1-n1c(C)cc(OCc2ncc(F)cc2F)c(Cl)c1=O` (single isomer, unassigned) [Example 3B, rel-3-chloro-4-[(3,5-difluoropyridin-2-yl)methoxy]-2′-[2-(1-hydroxycyclopropyl)pyrimidin-4-yl]-5′,6-dimethyl-[1,4′-bipyridin]-2-one], the values for the IC50 on p38a/PRAK and on p38a/MK2 (setting [2]) were greater than 316 µM and greater than 10000 nM, respectively.

For `Cc1cnc(-c2ccnc(C(C)(C)CO)n2)cc1-n1c(C)cc(OCc2ncc(F)cc2F)c(Cl)c1=O` (single isomer, unassigned) [Example 4A, rel-3-chloro-4-[(3,5-difluoropyridin-2-yl)methoxy]-2′-[2-(1-hydroxy-2-methylpropan-2-yl)pyrimidin-4-yl]-5′,6-dimethyl-[1,4′-bipyridin]-2-one], the values for the IC50 on p38a/PRAK and on p38a/MK2 (setting [1]) were 3.98 µM and 1.58 nM, respectively.

Consider `Cc1cnc(-c2ccnc(C(C)(C)CO)n2)cc1-n1c(C)cc(OCc2ncc(F)cc2F)c(Cl)c1=O` (single isomer, unassigned) [Example 4B, rel-3-chloro-4-[(3,5-difluoropyridin-2-yl)methoxy]-2′-[2-(1-hydroxy-2-methylpropan-2-yl)pyrimidin-4-yl]-5′,6-dimethyl-[1,4′-bipyridin]-2-one], for which the IC50 is greater than 316 µM on p38a/PRAK and 794 nM at p38a/MK2 (setting [2]).

With `Cc1cnc(-c2ccnc(C(C)(C)C(F)F)n2)cc1-n1c(C)cc(OCc2ncc(F)cc2F)c(Cl)c1=O` (single isomer, unassigned) [Example 5A, rel-3-chloro-2′-[2-(1,1-difluoro-2-methylpropan-2-yl)pyrimidin-4-yl]-4-[(3,5-difluoropyridin-2-yl)methoxy]-5′,6-dimethyl-[1,4′-bipyridin]-2-one], the results for the IC50 on p38a/PRAK and at p38a/MK2 (setting [2]) were 2.51 µM and 6.31 nM, respectively.

`Cc1cnc(-c2ccnc(C(C)(C)C(F)F)n2)cc1-n1c(C)cc(OCc2ncc(F)cc2F)c(Cl)c1=O` (single isomer, unassigned) [Example 5B, rel-3-chloro-2′-[2-(1,1-difluoro-2-methylpropan-2-yl)pyrimidin-4-yl]-4-[(3,5-difluoropyridin-2-yl)methoxy]-5′,6-dimethyl-[1,4′-bipyridin]-2-one]: the IC50 on p38a/PRAK is greater than 316 µM; at p38a/MK2 (setting [2]) it was 2000 nM.

Regarding `Cc1cnc(-c2ccnc([C@@](C)(O)C3CC3)n2)cc1-n1c(C)cc(OCc2ncc(F)cc2F)c(Cl)c1=O` (single isomer, unassigned) [Example 6A, rel-3-chloro-2′-[2-(1-cyclopropyl-1-hydroxyethyl)pyrimidin-4-yl]-4-[(3,5-difluoropyridin-2-yl)methoxy]-5′,6-dimethyl-[1,4′-bipyridin]-2-one], the values for the IC50 on p38a/PRAK and on p38a/MK2 (setting [2]) were 10 µM and 25.1 nM, respectively.

For `Cc1cnc(-c2ccnc([C@](C)(O)C3CC3)n2)cc1-n1c(C)cc(OCc2ncc(F)cc2F)c(Cl)c1=O` (single isomer, unassigned) [Example 6B, rel-3-chloro-2′-[2-(1-cyclopropyl-1-hydroxyethyl)pyrimidin-4-yl]-4-[(3,5-difluoropyridin-2-yl)methoxy]-5′,6-dimethyl-[1,4′-bipyridin]-2-one], the IC50 was 10 µM on p38a/PRAK and 5.01 nM on p38a/MK2 (setting [1]).

Take `Cc1cnc(-c2ccnc([C@](C)(O)C3CC3)n2)cc1-n1c(C)cc(OCc2ncc(F)cc2F)c(Cl)c1=O` (single isomer, unassigned) [Example 6C, rel-3-chloro-2′-[2-(1-cyclopropyl-1-hydroxyethyl)pyrimidin-4-yl]-4-[(3,5-difluoropyridin-2-yl)methoxy]-5′,6-dimethyl-[1,4′-bipyridin]-2-one]: the figures for the IC50 at p38a/PRAK and on p38a/MK2 (setting [2]) were greater than 316 µM and 3160 nM, respectively.

With `Cc1cnc(-c2ccnc([C@@](C)(O)C3CC3)n2)cc1-n1c(C)cc(OCc2ncc(F)cc2F)c(Cl)c1=O` (single isomer, unassigned) [Example 6D, rel-3-chloro-2′-[2-(1-cyclopropyl-1-hydroxyethyl)pyrimidin-4-yl]-4-[(3,5-difluoropyridin-2-yl)methoxy]-5′,6-dimethyl-[1,4′-bipyridin]-2-one], the IC50 at p38a/PRAK is greater than 316 µM; on p38a/MK2 (setting [2]) it was 2510 nM.

As to `Cc1cnc(-n2ccc(C(C)(C)O)n2)cc1-n1c(C)cc(OCc2ncc(F)cc2F)c(Cl)c1=O` (single isomer, unassigned) [Example 9A, rel-3-chloro-4-((3,5-difluoropyridin-2-yl)methoxy)-2′-(3-(2-hydroxypropan-2-yl)-1H-pyrazol-1-yl)-5′,6-dimethyl-2H-[1,4′-bipyridin]-2-one], the IC50 on p38a/PRAK is 3.16 µM; at p38a/MK2 (setting [1]), 3.98 nM.

For the molecule `Cc1cnc(-c2ccc3c(n2)[C@H](O)CC3)cc1-n1c(C)cc(OCc2ncc(F)cc2F)c(Cl)c1=O` (single isomer, unassigned) [Example 18A], the figures for the IC50 on p38a/PRAK and at p38a/MK2 (setting [2]) were 25.1 µM and 158 nM, respectively.

For the molecule `Cc1cnc(-c2ccc3c(n2)[C@@H](O)CC3)cc1-n1c(C)cc(OCc2ncc(F)cc2F)c(Cl)c1=O` (single isomer, unassigned) [Example 18B], the IC50 at p38a/PRAK was greater than 316 µM; at p38a/MK2 (setting [2]), greater than 10000 nM.

(Values after patent US11680056B2, “MK2 inhibitors and uses thereof” (Xinthera, Inc., priority 2021, dated 2023).)
